Ends that are not written are not given here.
Experiments:
NNV = details: synthetic sea bass peptides, NNV infection; ref Cervera et al. [2024b], [2025]; cited from earlier work
Method: Since co-administered peptides disrupt RGNNV adsorption in vitro, we evaluated their therapeutic potential in vivo by administering them […]. […] Given RGNNV’s rapid organ colonisation (Valero et al. [2018]), treatments were administered 2 h post-infection to ensure viral establishment.

E-11 cells = assay: MTT cytotoxicity test on E-11 cells; assay type: cell-based; details: 24 h at 25 °C, mean of n = 3, control = 100.0
Method: Synthetic peptides cytotoxicity on E − 11 cells was assessed using the MTT (Sigma) test with serial peptide dilutions (1000–4 µg/mL in L − 15 medium; n = 3; 24 h at 25 °C) as elsewhere (Cervera et al. [2024c]). Absorbance was measured at 570 nm (BMG Labtech); blanks lacked cells. Cell viability was calculated as the OD ratio of treated to untreated cells × 100, normalized at 690 nm.
Supplementary data S4: Cell viability (%) of E-11 cells after incubation with the synthetic peptides for 24 h. Data represent the mean ± SEM (n=3).

RGNNV [1] = assay: RGNNV in vivo bath challenge of European sea bass with peptide injection after infection; design: species or system European sea bass (Dicentrarchus labrax)
Method: RGNNV In vivo Challenge of European Sea Bass
A total of 375 sea bass were randomly assigned to eight experimental groups (in duplicate) and acclimated for 15 days. Seven groups were infected by immersion (10 L; 3.16 × 10^4 TCID₅₀ RGNNV/mL; 2 h), while a mock-infected control received conditioned medium. […] Combinations were selected according to the results obtained in the competitive in vitro assay against RGNNV (see below). Disease signs and mortalities were monitored daily for 23 days post-infection (dpi) using a four-rank scale (Valero et al. [2021a]). Fish (n = 6/group/time-point) were sampled at 2 and 23 dpi, euthanized with clove oil, bled, and weighed. Brain, NNV target tissue, and head-kidney, major hematopoietic tissue in fish, were dissected, frozen in TRIzol (Life Technologies), and stored at − 80 °C.
For viral load analysis, total RNA was extracted from sea bass brain and head-kidney using TRIzol (Life Technologies) and from E − 11 cells using the GenJET RNA Purification Kit (Thermo Fisher Scientific), following manufacturer protocols. One microgram of RNA was DNAse I-treated (1 U/µL; Thermo Scientific), and cDNA was synthesized using Superscript IV Reverse Transcriptase (Invitrogen). qPCR was performed on a QuantStudio 5 Flex (Applied Biosystems) to quantify cp, rdrp and mx genes using PowerUp SYBR Green reagents (Applied Biosystems). The protocol included a 95 °C hold, then 40 cycles (95 °C; 15 s) and 60 °C for 1 min. Relative expression was calculated using the 2^⁻ΔCt method (Livak and Schmittgen [2001]), with ef1a as the endogenous control. Primers (Supplementary Data S2) were validated by melting curve analysis and negative controls.
Fish mortality was analysed using Kaplan–Meier survival curves with log-rank (Mantel–Cox) tests for significance. Relative gene expression was evaluated by one-way ANOVA (p ≤ 0.05) followed by Tukey’s test. Viral kinetics were compared between P4-treated and untreated groups using Student’s t-test (p ≤ 0.05) at specific time points. All analyses were performed with IBM SPSS Statistics 20.
Fig. 4 Therapeutic administration of synthetic peptides improves survival and symptomatology in […] (RGNNV)-infected European sea bass juveniles. […] A mock-infected group was treated twice with only PBS. (A) Kaplan–Meier survival curves; (B) Heat-map representing the cumulated number of fish showing clinical signs of VER disease attending to their severity: (1) changes of the color of the skin, slower rhythm of swimming and/or slower reaction to external stimuli as feeding; (2) alterations in the swimming balance and/or erratic swimming spasms; (3) continuous erratic swimming; and (4) complete incapacity to keep balance, swim and/or move without external stimuli. VER, viral encephalopathy and retinopathy
Fig. 5 Therapeutic administration of synthetic peptides decreased viral loads in the brain without additional mx gene regulation in the sea bass juveniles head-kidney infected with red-spotted grouper nervous necrosis virus (RGNNV). […] A mock-infected group was treated twice with only PBS. (A–C) Transcription levels of RGNNV cp (A) and rdrp (B) genes in the brain and (C) mx gene in the head-kidney. Data represent the relative gene expression mean ± SEM (n = 6). Different letters indicate significant differences among groups according to the ANOVA (p < 0.05)

SJNNV = assay type: cell-based, striped jack nervous necrosis virus (strain SJNag97); details: virus (MOI 0.01) incubated with 500 μg/mL peptide for 15 min at 25 °C, titrated in E-11 cells; control virus + PBS; representative of two independent assays; Fig. 2B
Method: (§1) Parental RGNNV (strain It/411/96), SJNNV (strain SJNag97), and reassortant isolates (RGNNV/SJNNV, 367.2.2005; SJNNV/RGNNV, 389/I96) were used. Viruses were propagated in E − 11 cells cultured in L-15 Leibovitz medium (BioWest) supplemented with 5% FBS, 2 mM L-glutamine, and 100 IU/mL penicillin/streptomycin (Thermo Fisher Scientific) at 25 °C. Infected monolayers were incubated at 25 °C until extensive cytopathic effect (CPE) developed. Supernatants were then harvested, centrifuged, and titrated in triplicate using the end-point dilution method, expressed as TCID₅₀/mL (Reed and Müench [1938]).
(§2) For in vitro antiviral assays, viral cultures (MOI 0.01) from parental and reassortant strains were incubated with peptides (single or combined) using a non-lethal concentration previously tested (500 μg/mL; León et al. [2020]), for 15 min at 25 °C with gentle agitation. Controls were virus samples incubated with PBS (100% viral activity). Treated samples were titrated as previously. After medium removal, cells were exposed to ten-fold viral dilutions in 2% FBS. CPE was monitored daily for 10 days, and viral titres were calculated as TCID₅₀/mL (Reed and Müench [1938]) and expressed as viral titre or percent inhibition relative to controls.
Fig. 2 Designed peptides, single or combined, reduce the NNV absorption in vitro. NNV parental or reassortant genotypes were incubated with 500 μg/mL of the synthetic peptides for 15 min. Then, the viruses were titrated in the E − 11 cell line. Control samples consisted on virus incubated with the same amount of phosphate buffer saline. (A) Viral titer (TCID50/mL) and (B) % of virus inhibition with respect to the controls are represented. Data are representative of two independent assays. […] Each bar was matched to a substance by its colour and by the order of the legend.

RGNNV/SJNNV reassortant = assay: In vitro antiviral (competition) assay: virus incubated with peptide, then titrated in E-11 cells; assay type: cell-based, RGNNV/SJNNV reassortant (367.2.2005); details: virus (MOI 0.01) incubated with 500 μg/mL peptide for 15 min at 25 °C, control virus + PBS, representative of two independent assays, Fig. 2B
Method: as §1, §2
Fig. 2 Designed peptides, single or combined, reduce the NNV absorption in vitro. […]

RGNNV [2] = system: RGNNV; design: method as in Zhu et al. [2022]; details: RGNNV-infected hybrid grouper; ref Zhu et al. [2022]; cited from earlier work
Method: Given RGNNV’s rapid organ colonisation (Valero et al. [2018]), treatments were administered 2 h post-infection to ensure viral establishment.

Molecule: Hepcidin
- Reduction of mortality (NNV): 30–35%

Molecule: VSKASTVTGFGR-NH2 [Peptide P2]
- Viability (%) of E-11 cells, mean (E-11 cells; peptide 0.00411 mg/mL): 103.1%
- Viability (%) of E-11 cells, mean (E-11 cells; peptide 0.01234 mg/mL): 121.8%
- Viability (%) of E-11 cells, mean (E-11 cells; peptide 0.03704 mg/mL): 111.5%
- Viability (%) of E-11 cells, mean (E-11 cells; peptide 0.11111 mg/mL): 106.2%
- Viability (%) of E-11 cells, mean (E-11 cells; peptide 0.33333 mg/mL): 126.9%
- Viability (%) of E-11 cells, mean (E-11 cells; peptide 1.00000 mg/mL): 117.2%
- Relative percent survival (RPS) (RGNNV [1]; juvenile sea bass, bath infection 3.16 × 10^4 TCID₅₀ RGNNV/mL for 2 h, then intramuscular injection 1 µg peptide/g, 23 dpi, infected PBS group 63.6% survival): 43.8%
- RGNNV cp gene expression in the brain (RGNNV [1]; qPCR relative to ef1a, 2 dpi, n = 6, 1 µg peptide/g i.m. after RGNNV bath challenge, Fig. 5A): no transcriptional effect
- RGNNV rdrp gene expression in the brain (RGNNV [1]; qPCR relative to ef1a, 2 dpi, n = 6, 1 µg peptide/g i.m. after RGNNV bath challenge, Fig. 5B): no transcriptional effect
- % of virus inhibition with respect to the controls, SJNNV (SJNNV): 90%
- % of virus inhibition with respect to the controls, RGNNV/SJNNV (RGNNV/SJNNV reassortant): 96.84%

Molecule: NC12CC3CC(CC(C3)C1)C2 [amantadine]
- Improvement of survival (RGNNV [2]): 44%

— article PMC12374861, “Synthetic Peptides Suppress Nervous Necrosis Virus Absorption and Improve Survival Rates in European Sea Bass” (Marine Biotechnology (New York, N.y.), 2025)
